Test results as given in ChEMBL document CHEMBL1201862, “PubChem BioAssay data set” (2004).
Active and inactive are the calls of the source.

What was measured:
HEK293 [1] = assay: inhibition of NOD1-driven NF-kB reporter – cell-based, luminescence, uHTS, primary screen (AID 1578); type: functional; settings: Homo sapiens
HEK293 [2] = assay: cells; type: functional, cell-based; settings: Homo sapiens
[3] = biological target: Nucleotide-binding oligomerization domain-containing protein 2 (Homo sapiens, UniProt Q9HC29); assay: inhibition of NOD2-driven NF-kB reporter – cell-based, luminescence, uHTS, HEK293 (AID 1566); type: functional
Nucleotide-binding oligomerization domain-containing protein 2, sequence (Q9HC29 whole entry, the tested form may be a part): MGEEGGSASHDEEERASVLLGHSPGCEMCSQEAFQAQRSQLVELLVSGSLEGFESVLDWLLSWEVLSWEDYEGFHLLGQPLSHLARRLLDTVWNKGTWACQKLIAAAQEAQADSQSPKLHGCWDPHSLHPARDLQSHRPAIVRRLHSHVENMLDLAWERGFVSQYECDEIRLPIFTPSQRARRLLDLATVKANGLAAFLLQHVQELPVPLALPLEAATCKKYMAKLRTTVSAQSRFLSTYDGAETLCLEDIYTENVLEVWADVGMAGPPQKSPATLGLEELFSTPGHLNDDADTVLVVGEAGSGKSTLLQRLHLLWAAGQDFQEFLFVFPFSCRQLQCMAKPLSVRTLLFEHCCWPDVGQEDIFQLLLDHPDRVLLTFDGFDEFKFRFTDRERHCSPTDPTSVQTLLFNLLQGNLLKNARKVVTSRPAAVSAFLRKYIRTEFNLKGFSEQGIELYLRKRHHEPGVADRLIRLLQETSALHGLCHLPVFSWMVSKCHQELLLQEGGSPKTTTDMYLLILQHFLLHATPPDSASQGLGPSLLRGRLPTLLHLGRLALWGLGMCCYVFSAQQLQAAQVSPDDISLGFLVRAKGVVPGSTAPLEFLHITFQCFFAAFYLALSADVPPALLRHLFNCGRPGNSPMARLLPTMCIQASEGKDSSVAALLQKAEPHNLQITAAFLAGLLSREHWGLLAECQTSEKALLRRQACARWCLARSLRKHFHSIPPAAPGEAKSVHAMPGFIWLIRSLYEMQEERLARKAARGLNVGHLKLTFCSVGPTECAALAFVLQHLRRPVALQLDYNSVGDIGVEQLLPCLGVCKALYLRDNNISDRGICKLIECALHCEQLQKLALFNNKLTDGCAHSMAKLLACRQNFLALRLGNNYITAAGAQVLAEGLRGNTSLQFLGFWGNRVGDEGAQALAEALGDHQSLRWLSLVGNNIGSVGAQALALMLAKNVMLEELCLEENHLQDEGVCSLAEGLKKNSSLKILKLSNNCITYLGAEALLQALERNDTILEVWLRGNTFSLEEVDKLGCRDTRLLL

HEK293 [4] = assay: cells; type: functional, cell-based; settings: Homo sapiens; remark: listed apart in the source
HEK293 [5] = assay: NOD2 signaling inhibitors in MDP-stimulated cells, cell-based, uHTS, luminescence (AID 2001); type: functional; settings: Homo sapiens
HEK293 [6] = assay: cells; type: functional, cell-based; settings: Homo sapiens; remark: listed apart in the source
[7] = biological target: Voltage-dependent T-type calcium channel subunit alpha-1H (Homo sapiens, UniProt O95180); type: functional;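 further: channel activity triggered by adding a high calcium stimulation buffer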
Voltage-dependent T-type calcium channel subunit alpha-1H, sequence (O95180 whole entry): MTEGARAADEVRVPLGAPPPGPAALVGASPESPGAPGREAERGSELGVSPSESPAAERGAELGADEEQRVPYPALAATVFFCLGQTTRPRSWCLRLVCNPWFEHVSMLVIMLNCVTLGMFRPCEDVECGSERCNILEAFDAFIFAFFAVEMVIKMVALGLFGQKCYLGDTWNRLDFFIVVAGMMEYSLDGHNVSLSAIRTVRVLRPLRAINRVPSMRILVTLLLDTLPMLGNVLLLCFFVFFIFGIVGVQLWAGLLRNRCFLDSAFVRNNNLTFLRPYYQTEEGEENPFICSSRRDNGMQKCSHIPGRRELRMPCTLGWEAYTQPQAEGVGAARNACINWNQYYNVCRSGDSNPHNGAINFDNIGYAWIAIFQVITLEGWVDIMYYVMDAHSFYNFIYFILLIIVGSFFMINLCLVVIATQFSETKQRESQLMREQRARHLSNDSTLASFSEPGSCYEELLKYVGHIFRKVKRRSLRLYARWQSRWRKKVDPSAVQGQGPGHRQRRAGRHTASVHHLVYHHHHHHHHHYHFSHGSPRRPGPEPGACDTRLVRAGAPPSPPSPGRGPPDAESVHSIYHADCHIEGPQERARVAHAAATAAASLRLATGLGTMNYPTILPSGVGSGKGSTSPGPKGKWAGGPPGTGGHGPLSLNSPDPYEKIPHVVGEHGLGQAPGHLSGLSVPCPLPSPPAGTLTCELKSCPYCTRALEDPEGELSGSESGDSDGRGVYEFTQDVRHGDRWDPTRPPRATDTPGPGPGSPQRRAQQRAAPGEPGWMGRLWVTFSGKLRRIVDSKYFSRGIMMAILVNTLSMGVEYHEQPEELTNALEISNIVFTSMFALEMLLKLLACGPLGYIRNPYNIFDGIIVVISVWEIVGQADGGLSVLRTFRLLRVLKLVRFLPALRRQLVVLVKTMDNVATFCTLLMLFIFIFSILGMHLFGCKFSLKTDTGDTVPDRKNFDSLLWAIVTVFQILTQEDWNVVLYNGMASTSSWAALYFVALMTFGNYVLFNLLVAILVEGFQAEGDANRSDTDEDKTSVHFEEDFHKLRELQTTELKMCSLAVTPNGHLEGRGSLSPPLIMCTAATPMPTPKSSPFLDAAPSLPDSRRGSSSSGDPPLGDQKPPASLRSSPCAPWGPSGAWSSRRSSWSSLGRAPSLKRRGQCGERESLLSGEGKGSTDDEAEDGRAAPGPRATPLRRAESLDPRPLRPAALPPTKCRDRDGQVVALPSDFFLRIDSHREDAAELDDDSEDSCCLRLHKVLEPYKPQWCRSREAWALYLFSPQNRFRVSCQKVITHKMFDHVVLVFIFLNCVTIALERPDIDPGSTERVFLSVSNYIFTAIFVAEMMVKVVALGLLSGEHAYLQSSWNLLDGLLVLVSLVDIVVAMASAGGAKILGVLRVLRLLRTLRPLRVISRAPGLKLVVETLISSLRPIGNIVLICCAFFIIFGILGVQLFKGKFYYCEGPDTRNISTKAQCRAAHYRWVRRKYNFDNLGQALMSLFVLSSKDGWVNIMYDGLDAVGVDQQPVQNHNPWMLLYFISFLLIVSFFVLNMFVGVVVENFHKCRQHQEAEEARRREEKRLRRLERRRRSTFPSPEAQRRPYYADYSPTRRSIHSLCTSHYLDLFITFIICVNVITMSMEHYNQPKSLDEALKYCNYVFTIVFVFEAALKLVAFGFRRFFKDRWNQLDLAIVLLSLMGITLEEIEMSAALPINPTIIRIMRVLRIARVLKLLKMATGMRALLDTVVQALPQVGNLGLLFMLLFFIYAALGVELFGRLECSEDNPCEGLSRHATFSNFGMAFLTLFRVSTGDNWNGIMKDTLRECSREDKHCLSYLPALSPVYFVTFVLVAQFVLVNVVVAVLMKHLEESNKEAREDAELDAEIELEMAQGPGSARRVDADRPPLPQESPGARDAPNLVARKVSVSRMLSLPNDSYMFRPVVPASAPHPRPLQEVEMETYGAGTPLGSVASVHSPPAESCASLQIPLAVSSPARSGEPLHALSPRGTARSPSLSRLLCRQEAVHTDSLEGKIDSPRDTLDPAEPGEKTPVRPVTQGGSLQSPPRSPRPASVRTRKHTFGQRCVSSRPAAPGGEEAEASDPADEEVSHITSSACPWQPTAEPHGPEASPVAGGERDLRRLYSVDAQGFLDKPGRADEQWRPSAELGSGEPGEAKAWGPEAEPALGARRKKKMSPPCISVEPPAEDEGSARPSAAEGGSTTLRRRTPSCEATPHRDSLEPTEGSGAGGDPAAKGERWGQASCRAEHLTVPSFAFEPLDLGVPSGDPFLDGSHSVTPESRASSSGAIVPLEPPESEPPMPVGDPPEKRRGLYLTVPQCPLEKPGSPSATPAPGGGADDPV

[8] = biological target: DNA dC->dU-editing enzyme APOBEC-3A (Homo sapiens, UniProt P31941); assay: A3A deaminase inhibition for selectivity – biochemical, dose response (AID 504722); type: functional
DNA dC->dU-editing enzyme APOBEC-3A, sequence (P31941 whole entry): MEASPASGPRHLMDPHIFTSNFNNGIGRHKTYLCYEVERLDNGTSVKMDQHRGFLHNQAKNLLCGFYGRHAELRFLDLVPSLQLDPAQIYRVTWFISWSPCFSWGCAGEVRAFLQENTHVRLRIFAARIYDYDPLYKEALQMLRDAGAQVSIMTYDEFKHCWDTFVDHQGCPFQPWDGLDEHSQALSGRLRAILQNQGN

[9] = biological target: DNA dC->dU-editing enzyme APOBEC-3G (Homo sapiens, UniProt Q9HC16); assay: Dose Response confirmation of small molecule APOBEC3G DNA Deaminase Inhibitors via a fluorescence-based single-stranded DNA deaminase assay. [Related pubchem assays (depositor defined):AID493012, AID493028]; type: functional
DNA dC->dU-editing enzyme APOBEC-3G, sequence (Q9HC16 whole entry): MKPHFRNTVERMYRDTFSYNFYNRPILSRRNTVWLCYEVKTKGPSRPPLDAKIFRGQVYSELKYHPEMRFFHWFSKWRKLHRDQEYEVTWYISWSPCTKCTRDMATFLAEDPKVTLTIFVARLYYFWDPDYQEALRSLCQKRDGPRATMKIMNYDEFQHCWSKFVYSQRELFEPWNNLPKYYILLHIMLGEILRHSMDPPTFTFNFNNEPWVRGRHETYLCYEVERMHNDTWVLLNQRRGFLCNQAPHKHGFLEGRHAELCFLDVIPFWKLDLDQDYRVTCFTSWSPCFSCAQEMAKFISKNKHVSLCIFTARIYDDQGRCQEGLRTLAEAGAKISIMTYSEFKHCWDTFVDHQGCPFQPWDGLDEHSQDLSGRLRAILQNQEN

BJ [10] = assay: BJ-TERT fibroblast viability loss – cell-based, RAS-independent, luminescence, dose response (AID 1933); type: functional; settings: Homo sapiens
BJ [11] = assay: BJ-TERT-LT-ST fibroblast viability loss – cell-based, RAS-independent, luminescence, dose response (AID 1935); type: functional; settings: Homo sapiens;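 further: BJ fibroblasts immortalized with TERT plus LT and ST oncogenes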
Protein RecA = biological target: T1, Protein RecA (Mycobacterium tuberculosis, UniProt P9WHJ3); assay: Fluorescence Cell-Free Homogeneous Dose Retest to Identify Inhibitors of RecA-Intein Splicing Activity. [Related pubchem assays (depositor defined):AID2097, AID2223, AID489010, AID492950]; type: functional
T1 sequence (P9WHJ3 whole entry): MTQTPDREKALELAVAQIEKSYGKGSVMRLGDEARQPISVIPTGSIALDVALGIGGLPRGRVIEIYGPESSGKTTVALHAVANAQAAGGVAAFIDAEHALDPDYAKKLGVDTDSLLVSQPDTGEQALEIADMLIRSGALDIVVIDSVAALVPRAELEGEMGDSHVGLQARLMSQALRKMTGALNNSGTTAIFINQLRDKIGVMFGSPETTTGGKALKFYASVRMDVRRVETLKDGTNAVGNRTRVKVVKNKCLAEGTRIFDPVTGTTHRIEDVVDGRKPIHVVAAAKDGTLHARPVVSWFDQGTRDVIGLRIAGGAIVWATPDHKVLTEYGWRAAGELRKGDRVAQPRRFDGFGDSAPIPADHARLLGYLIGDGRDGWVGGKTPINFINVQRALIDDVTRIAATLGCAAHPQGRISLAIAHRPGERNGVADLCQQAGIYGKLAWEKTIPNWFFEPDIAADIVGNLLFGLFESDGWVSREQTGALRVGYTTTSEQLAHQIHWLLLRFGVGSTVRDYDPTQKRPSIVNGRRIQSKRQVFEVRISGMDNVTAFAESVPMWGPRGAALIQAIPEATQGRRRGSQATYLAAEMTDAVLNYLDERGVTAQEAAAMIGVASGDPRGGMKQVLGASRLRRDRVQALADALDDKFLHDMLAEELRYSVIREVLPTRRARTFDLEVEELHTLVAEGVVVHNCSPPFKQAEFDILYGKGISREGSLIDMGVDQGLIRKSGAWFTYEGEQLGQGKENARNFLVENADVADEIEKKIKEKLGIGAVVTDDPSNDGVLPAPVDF

[12] = DRD fibroblast viability loss – cell-based, non-viral oncogenic, luminescence, dose response (AID 1934); type: functional; settings: Homo sapiens
[13] = Intein inhibitors as potential Tuberculosis drugs, a cytotoxicity screen. [Related pubchem assays (depositor defined):AID2221, AID2223, AID434968, AID435010, AID449749, AID449750, AID489010]; type: functional
[14] = biological target: T2, Replicative DNA helicase DnaB (Mycobacterium tuberculosis, UniProt P9WMR3); assay: DnaB intein splicing inhibitors, dose response, biochemical, cell-free fluorescence (AID 449749); type: functional
T2 sequence (P9WMR3 whole entry): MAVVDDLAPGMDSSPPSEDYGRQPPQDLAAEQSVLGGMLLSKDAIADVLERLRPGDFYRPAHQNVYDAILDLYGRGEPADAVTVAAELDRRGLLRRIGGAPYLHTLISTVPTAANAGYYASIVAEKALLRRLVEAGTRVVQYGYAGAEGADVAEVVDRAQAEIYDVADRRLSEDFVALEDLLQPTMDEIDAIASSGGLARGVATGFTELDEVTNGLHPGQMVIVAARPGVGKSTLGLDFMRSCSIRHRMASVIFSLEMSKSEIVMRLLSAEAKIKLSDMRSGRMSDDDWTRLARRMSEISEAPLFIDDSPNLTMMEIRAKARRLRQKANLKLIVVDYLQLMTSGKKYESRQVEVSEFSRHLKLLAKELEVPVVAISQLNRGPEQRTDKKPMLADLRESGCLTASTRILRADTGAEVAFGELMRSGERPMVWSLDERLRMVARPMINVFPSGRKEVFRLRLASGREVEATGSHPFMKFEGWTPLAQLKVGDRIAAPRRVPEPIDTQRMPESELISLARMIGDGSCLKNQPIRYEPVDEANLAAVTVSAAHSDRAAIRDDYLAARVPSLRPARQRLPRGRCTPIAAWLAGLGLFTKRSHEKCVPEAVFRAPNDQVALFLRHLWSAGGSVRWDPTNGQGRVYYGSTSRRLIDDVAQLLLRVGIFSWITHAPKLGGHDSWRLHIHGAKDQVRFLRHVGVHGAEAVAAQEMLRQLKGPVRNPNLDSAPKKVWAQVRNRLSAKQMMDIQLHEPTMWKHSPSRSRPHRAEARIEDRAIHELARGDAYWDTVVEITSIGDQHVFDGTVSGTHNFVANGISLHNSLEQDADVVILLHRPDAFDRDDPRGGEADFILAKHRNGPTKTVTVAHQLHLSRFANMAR

[15] = general cell-killing toxicity readout – plate reader, dry powder samples, cytotoxicity control for PAX8 inhibitor project, dose response (AID 743021); type: functional, cell-based
BJ [16] = assay: cells; type: functional, cell-based; settings: Homo sapiens
Paired box protein Pax-8 = Paired box protein Pax-8 (Homo sapiens, UniProt Q06710); assay: PAX8 transcriptional activity inhibition in RMG-I – RMG-I cells, luciferase, cherry-pick, dose response (AID 687027); type: functional, cell-based;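 further: luciferase reporter driven by Pax8 target thyroperoxidase promoter measured by SteadyGlo luminescence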
Paired box protein Pax-8, sequence (Q06710 whole entry): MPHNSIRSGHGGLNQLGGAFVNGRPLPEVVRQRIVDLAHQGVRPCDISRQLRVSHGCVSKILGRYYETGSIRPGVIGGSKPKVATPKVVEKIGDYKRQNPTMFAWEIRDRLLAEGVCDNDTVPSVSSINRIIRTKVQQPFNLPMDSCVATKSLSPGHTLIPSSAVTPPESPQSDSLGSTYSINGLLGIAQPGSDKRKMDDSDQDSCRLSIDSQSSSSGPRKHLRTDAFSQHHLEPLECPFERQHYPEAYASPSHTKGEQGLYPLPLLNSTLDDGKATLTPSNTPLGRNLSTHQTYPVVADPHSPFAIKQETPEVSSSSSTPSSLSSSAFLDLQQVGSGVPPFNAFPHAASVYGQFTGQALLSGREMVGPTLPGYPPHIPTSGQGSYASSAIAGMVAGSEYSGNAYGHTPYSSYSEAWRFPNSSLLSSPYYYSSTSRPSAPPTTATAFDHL

[17] = viability loss in THP-1 monocytes – THP-1 cells, cytotoxicity control for Vif-APOBEC3G degradation inhibitor project, dose response (AID 1117359); type: functional; settings: THP-1
[18] = biological target: T3, Neuropeptide Y receptor type 1 (Homo sapiens, UniProt P25929); assay: Fluorescence-based counterscreen for agonists of NPY-Y2: cell-based high-throughput dose response assay for agonists of NPY-Y1.; type: functional
T3 sequence (P25929 whole entry): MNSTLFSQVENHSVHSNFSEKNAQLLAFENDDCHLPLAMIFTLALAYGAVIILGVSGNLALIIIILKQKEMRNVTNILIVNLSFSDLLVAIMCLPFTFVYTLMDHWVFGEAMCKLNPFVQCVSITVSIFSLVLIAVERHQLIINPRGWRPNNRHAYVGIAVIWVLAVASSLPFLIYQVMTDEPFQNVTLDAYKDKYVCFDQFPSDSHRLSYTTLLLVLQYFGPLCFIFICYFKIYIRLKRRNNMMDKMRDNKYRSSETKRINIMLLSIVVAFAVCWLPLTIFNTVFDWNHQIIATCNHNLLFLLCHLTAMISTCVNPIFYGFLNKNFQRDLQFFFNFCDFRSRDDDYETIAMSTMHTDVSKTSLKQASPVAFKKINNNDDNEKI

HEK293 [19] = assay: Fluorescence-based counterscreen for potentiators or agonists of NPY-Y2: cell-based high-throughput dose response assay to identify inhibitors of cyclic nucleotide gated ion channel (CNGC) activity. In this assay, the parental HEK293 cell line transfected with a cyclic-nucleotide gated ion channel (CNGC)-based cAMP sensor is used to measure inhibition of isoproterenol-induced CNGC activity by test compound.; type: functional; settings: Homo sapiens
[20] = biological target: T4, Neuropeptide Y receptor type 2 (Homo sapiens, UniProt P49146); assay: Fluorescence-based cell-based high-throughput dose response assay for agonists of NPY-Y2. [Related pubchem assays: 1703 (Screening assay (CNGC inhibitors).), 1359 (Screening assay (NPY-Y2 potentiators or agonists).), 1304 (Screening assay (NPY-Y1 potentiators or agonists).), 1710 (Screening assay (NPY-Y2 agonists).), 1791 (Summary AID.)]; type: functional
T4 sequence (P49146 whole entry): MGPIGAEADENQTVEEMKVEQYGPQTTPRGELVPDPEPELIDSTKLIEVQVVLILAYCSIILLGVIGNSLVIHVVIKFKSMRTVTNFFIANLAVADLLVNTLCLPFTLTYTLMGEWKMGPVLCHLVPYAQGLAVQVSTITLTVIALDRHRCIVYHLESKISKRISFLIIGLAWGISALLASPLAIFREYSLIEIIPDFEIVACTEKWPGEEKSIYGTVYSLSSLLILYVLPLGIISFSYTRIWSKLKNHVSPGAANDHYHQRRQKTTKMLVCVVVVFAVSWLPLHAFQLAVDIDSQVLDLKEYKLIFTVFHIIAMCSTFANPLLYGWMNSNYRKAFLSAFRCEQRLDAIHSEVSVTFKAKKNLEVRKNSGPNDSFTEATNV

Cc1nc2ccccc2c2oc(C(=O)NCC3COc4ccccc4O3)cc12 (centres undefined)
EC50 (HEK293 [1]): 4.69 µM (active)
IC50 (HEK293 [2]): 4.14 µM (active)
EC50 [3]: 4.75 µM (active)
IC50 (HEK293 [4]): 8.6 µM (active)
IC50 (HEK293 [5]): 3.93 µM (inactive)
IC50 (HEK293 [6]): > 20 µM (inactive)
EC50 [7]: 7.77 µM (active)

N#Cc1c(S)nc2c(c1-c1cccnc1)CCCC2
IC50 [8]: > 100 µM (inactive)
IC50 [9]: 2.72 µM (active)

CC(=O)n1cc(N(C(=O)CCl)c2ccccc2)c2ccccc21
EC50 (BJ [10]): 0.654 µM (inconclusive)
EC50 (BJ [11]): 5.99 µM (active)
EC50 (Protein RecA): 0.347 µM (active)
EC50 [12]: 0.912 µM (active)
CC50 [13]: 1.16 µM (active)
AC50 [14]: 2.3 µM (active)
AC50 [15]: 4.84 µM (active)
EC50 (BJ [16]): 1.51 µM (inconclusive)
AC50 (Paired box protein Pax-8): 1.34 µM (active)

O=C(N/N=C\c1ccc(Cl)cc1)C1=NOC2COC3(CCN(c4ccc([N+](=O)[O-])cc4)CC3)OCC12 (centres undefined)
CC50 [17]: > 40 µM (active)
EC50 [18]: > 35.4 µM (not active)
EC50 (HEK293 [19]): > 35.4 µM (not active)
EC50 [20]: > 35.4 µM (not active)

N#Cc1c(-c2ccncc2)c2c([nH]c1=S)CCCC2
IC50 [8]: > 100 µM (inactive)
IC50 [9]: 2.21 µM (active)
